The values below are quoted from earlier work in US11981760B2, “Therapeutic hydrogels and contact lens for corneal melting” (THE REGENTS OF THE UNIVERSITY OF COLORADO, priority 2018, dated 2024).

For the compound `c1ccc(CNCc2ccccn2)nc1` [DPA, dipicolylamine], where the note is “Ca^2+, Mg^2+, Na^+ and K^+”, the “association with other metal ions” value is recorded as “does not associate strongly”. Further, the Kd (five-membered chelate ring, read-out: Kd of Zn^2+ complexation) is about 10 pM.

Usually Kd stands for a measure of binding affinity in units of concentration.
